According to patent US11492342B2, “Crystalline forms of piperazine-1,4-diylbis((6-(1H-benzo[d]imidazo-2-yl)pyridin-2yl)methanone)” (Landos Biopharma, Inc., priority 2020, dated 2022):
Like-named read-outs stand apart in the source and are kept apart here. Blank lines part the entries; values can stand above or below the compound they belong to.

Key:
[1] = Pharmacokinetic analysis: oral dosing to mice, BT-11 in plasma and colonic tissue by LC/MS/MS; conditions: for Colon BT-11 Concentration / Plasma BT-11 Cmax: oral; for Colon BT-11 Concentration: colon 4 hours post-dose
Description: BT-11 Form 0, Form 1, and Form 2 were orally dosed to male and female mice (n=4) to provide 8 mg/kg. Plasma was collected at 1, 2, and 4 hours post-dose. At 4 hours post-dose, colons were excised and washed in PBS. Tissues were then homogenized by Fast-Prep24 instrument. Plasma and tissue homogenate were prepared by acetonitrile-based liquid-liquid extraction. BT-11 concentrations were determined by LC/MS/MS analysis using a linear calibration curve.

[2] = Particle size distribution (PSD) analysis; format: physicochemical
Description: Particle size distribution analysis was carried out using a particle size analyzer with a dispersion cell. Approximately 50 mg of sample was weighed into a 20 mL scintillation vial and 10 mL of dispersant was added. The sample was sonicated for 30 seconds, aspirated with a glass pipette, and then added to the dispersion unit. The sample was circulated for 30 seconds to allow the dispersion to stabilize.

[3] = Dynamic vapor sorption (DVS); format: physicochemical; conditions: for re-crystallization or form change during the DVS experiment: DVS kinetic plot
Description: Approximately, 10 mg of sample was placed into a mesh vapor sorption balance pan and loaded into a DVS-1/DVS Intrinsic/DVS Advantage dynamic vapor sorption balance by Surface Measurement Systems. The sample was subjected to a ramping profile from 40-90% relative humidity (RH) at 10% increments, maintaining the sample at each step until a stable weight had been achieved (dm/dt 0.004%, minimum step length 30 min, maximum step length 500 min) at 25° C. After completion of the sorption cycle, the sample was dried using the same procedure to 0% RH and then a second sorption cycle back to 40% RH. Two cycles were performed. The weight change during the sorption/desorption cycles were plotted, allowing for the hygroscopic nature of the sample to be determined. XRPD analysis was then carried out on any solid retained.

[4] = cited from earlier work
[5] = system: TNFα production in the gastrointestinal tract, fecal calprotectin; conditions: mice; cited from earlier work
[6] = system: CD25/STAT5 signaling and late-stage glycolysis; conditions: murine cells; cited from earlier work
[7] = system: CD25/STAT5 signaling and late-stage glycolysis; conditions: human cells; cited from earlier work
[8] = Solid form change on drying, followed by XRPD; format: physicochemical
Description: XRPD analysis was carried out, scanning the samples between 3 and 35° 2θ. The material was gently ground to release any agglomerates and loaded onto a multi-well plate with polymer film to support the sample. The multi-well plate was then placed into the diffractometer and analyzed using Cu K radiation (α1λ=1.54060 Å; α2=1.54443 Å; β=1.39225 Å; α1:α2 ratio=0.5) running in transmission mode (step size 0.0130° 2θ, step time 18.87 s) using 40 kV/40 mA generator settings. Data were visualized and analyzed.

[9] = mice, 8 mg/kg, plasma collected at 1, 2 and 4 hours post-dose
[10] = DVS, 25° C., listed as BT-11 Form 2
[11] = DVS, 25° C., listed as BT-11 Form 1
[12] = DVS, 25° C., listed as BT-11 Form 3

SMILES: O=C(c1cccc(-c2nc3ccccc3[nH]2)n1)N1CCN(C(=O)c2cccc(-c3nc4ccccc4[nH]3)n2)CC1 [Form 0, piperazine-1,4-diylbis((6-(1H-benzo[d]imidazo-2-yl)pyridine-2-yl)methanone)]
Cmax ([1]; both, mouse, plasma, po, 8 mg/kg, Plasma BT-11 Cmax, mice, plasma collected at 1, 2 and 4 hours post-dose): 186 ng/mL
Colon BT-11 Concentration ([1]; mice, 8 mg/kg): 1280 ng/g
d10 [2]: 0.2 μm
d50 [2]: 6.3 μm
d90 [2]: 19.8 μm

SMILES: O=C(c1cccc(-c2nc3ccccc3[nH]2)n1)N1CCN(C(=O)c2cccc(-c3nc4ccccc4[nH]3)n2)CC1 [piperazine-1,4-diylbis((6-(1H-benzo[d]imidazo-2-yl)pyridine-2-yl)methanone)]
systemic absorption when orally administered [4]: poorly systemically absorbed
fecal calprotectin levels [5]: reduces
local TNFα production in the gastrointestinal tract [5]: reduces
CD25/STAT5 signaling and late-stage glycolysis [6]: induces changes
CD25/STAT5 signaling and late-stage glycolysis [7]: induces changes

SMILES: Cl.Cl.O=C(c1cccc(-c2nc3ccccc3[nH]2)n1)N1CCN(C(=O)c2cccc(-c3nc4ccccc4[nH]3)n2)CC1 [Form 1, piperazine-1,4-diylbis((6-(1H-benzo[d]imidazo-2-yl)pyridine-2-yl)methanone)]
Colon BT-11 Concentration ([1]; mice, 8 mg/kg): 3000 ng/g
Plasma BT-11 Cmax [1, 9]: 177 ng/mL
re-crystallization or form change during the DVS experiment ([3]; listed as BT-11 Form 1): no evidence of re-crystallization or form change
hygroscopic nature [3, 11]: hygroscopic
total mass increase up to 90% RH [3, 11]: 24%
total mass lost below 20% RH [3, 11]: 6.0%
d10 ([2]; listed as BT-11 Form 1): 0.1 μm
d50 ([2]; listed as BT-11 Form 1): 0.5 μm
d90 ([2]; listed as BT-11 Form 1): 40.8 μm

Continued, in another order:

Colon BT-11 Concentration ([1]; mice, 8 mg/kg): 4470 ng/g
Plasma BT-11 Cmax [1, 9]: 41 ng/mL
mass uptake on 2nd cycle ([3]; DVS, 25° C., 2nd cycle): 0.23%
hygroscopic nature [3, 10]: slightly hygroscopic
total mass increase up to 90% RH [3, 10]: 0.32%
d10 ([2]; listed as BT-11 Form 2): 18.2 μm
d50 ([2]; listed as BT-11 Form 2): 31.9 μm
d90 ([2]; listed as BT-11 Form 2): 83.9 μm
SMILES: Cl.Cl.O=C(c1cccc(-c2nc3ccccc3[nH]2)n1)N1CCN(C(=O)c2cccc(-c3nc4ccccc4[nH]3)n2)CC1 [Form 2, piperazine-1,4-diylbis((6-(1H-benzo[d]imidazo-2-yl)pyridine-2-yl)methanone)]
confinement to the gastrointestinal tract after oral administration ([1]; mouse, in vivo, po): increased confinement to the gastrointestinal tract
re-crystallization or form change during the DVS experiment ([3]; listed as BT-11 Form 2): no evidence of re-crystallization or form change

total moisture uptake due to surface moisture ([3]; DVS, 25° C.): 2.8%
total mass increase up to 90% RH [3, 12]: 7.8%
total mass lost below 20% RH [3, 12]: 5.0%
SMILES: Cl.Cl.O=C(c1cccc(-c2nc3ccccc3[nH]2)n1)N1CCN(C(=O)c2cccc(-c3nc4ccccc4[nH]3)n2)CC1 [Form 3, piperazine-1,4-diylbis((6-(1H-benzo[d]imidazo-2-yl)pyridine-2-yl)methanone)]
re-crystallization or form change during the DVS experiment ([3]; listed as BT-11 Form 3): No evidence of re-crystallization or form change

form change post-drying [8]: convert to Form 2
SMILES: Cl.Cl.O=C(c1cccc(-c2nc3ccccc3[nH]2)n1)N1CCN(C(=O)c2cccc(-c3nc4ccccc4[nH]3)n2)CC1 [Form 7, piperazine-1,4-diylbis((6-(1H-benzo[d]imidazo-2-yl)pyridine-2-yl)methanone)]
